# Biological target: T1, human JAK2 (Homo sapiens, UniProt O60674)
# T1 construct: JAK2 (a.a. 828-1132); His tag (N); made in house; host or cells: insect cells (baculovirus)
# Assay: In vitro JAK kinase assay (HTRF, phosphorylation of biotinylated peptide)
# Type: biochemical
# Details: catalytic domain a.a. 828-1132, 30 μM ATP, 500 nM peptide, room temperature 1 hr; read-out: JAK-2 IC50
# Method: Compounds herein were tested for inhibitory activity of JAK targets according to the following in vitro assay described in Park et al, Analytical Biochemistry 1999, 269, 94-104. The catalytic domains of human JAK1 (a.a. 837-1142), JAK2 (a.a. 828-1132) and JAK3 (a.a. 781-1124) with an N-terminal His tag were expressed using baculovirus in insect cells and purified. The catalytic activity of JAK1, JAK2 or JAK3 was assayed by measuring the phosphorylation of a biotinylated peptide. The phosphorylated peptide was detected by homogenous time resolved fluorescence (HTRF). IC50s of compounds were measured for each kinase in the reactions that contain the enzyme, ATP and 500 nM peptide in 50 mM Tris (pH 7.8) buffer with 100 mM NaCl, 5 mM DTT, and 0.1 mg/mL (0.01%) BSA. The ATP concentration in the reactions was 90 μM for JAK1, 30 μM for Jak2 and 3 μM for JAK3. Reactions were carried out at room temperature for 1 hr and then stopped with 20 μL 45 mM EDTA, 300 nM SA-APC, 6 nM Eu-Py20 in assay buffer (Perkin Elmer, Boston, Mass.). Binding to the Europium labeled antibody took place for 40 minutes and HTRF signal was measured on a Fusion plate reader (Perkin Elmer, Boston, Mass.). Certain of the above compounds were tested according to this assay.
# T1 sequence (O60674 828-1132): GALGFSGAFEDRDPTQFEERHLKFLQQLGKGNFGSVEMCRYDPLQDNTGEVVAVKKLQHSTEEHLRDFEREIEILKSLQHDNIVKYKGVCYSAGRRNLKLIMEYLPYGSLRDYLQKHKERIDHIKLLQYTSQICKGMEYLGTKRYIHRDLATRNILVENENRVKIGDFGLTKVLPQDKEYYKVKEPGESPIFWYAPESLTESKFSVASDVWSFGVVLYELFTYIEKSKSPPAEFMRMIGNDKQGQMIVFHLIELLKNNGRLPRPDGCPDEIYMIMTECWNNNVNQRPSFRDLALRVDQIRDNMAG
row,IC50 [nM],Compound
1,< 100,"COCC(C)NC(=O)c1ccc(Nc2ncc(C)c(-c3cnn(C(CC#N)C4CCCC4)c3)n2)cc1 (mixture of isomers) [Example 87, 4-(4-(1-(2-cyano-1-cyclopentylethyl)-1H-pyrazol-4-yl)-5-methylpyrimidin-2-ylamino)-N-(1-methoxypropan-2-yl)benzamide]"
2,< 100,"COCC(C)NC(=O)c1cccc(Nc2nccc(-c3cnn(C(CC#N)C4CCCC4)c3)n2)c1 (mixture of isomers) [Example 113, 3-(4-(1-(2-cyano-1-cyclopentylethyl)-1H-pyrazol-4-yl)pyrimidin-2-ylamino)-N-(1-methoxypropan-2-yl)benzamide]"
3,< 100,"N#CCC(C1CCCC1)n1cc(-c2ccnc(Nc3ccc(C(=O)N4CC[C@@H](O)C4)cc3)n2)cn1 (mixture of isomers) [Example 127, 3-cyclopentyl-3-(4-(2-(4-((R)-3-hydroxypyrrolidine-1-carbonyl)phenylamino)pyrimidin-4-yl)-1H-pyrazol-1-yl)propanenitrile]"
4,< 100,"N#CCC(C1CCCC1)n1cc(-c2ccnc(Nc3cccc(C(=O)N4CC[C@@H](O)C4)c3)n2)cn1 (mixture of isomers) [Example 141, 3-cyclopentyl-3-(4-(2-(3-((R)-3-hydroxypyrrolidine-1-carbonyl)phenylamino)pyrimidin-4-yl)-1H-pyrazol-1-yl)propanenitrile]"
5,< 100,"COc1cccc([C@@H](C)NC(=O)c2cccc(Nc3nccc(-c4cnn(C(CC#N)C5CCCC5)c4)n3)c2)c1 (mixture of isomers) [Example 145, 3-(4-(1-(2-cyano-1-cyclopentylethyl)-1H-pyrazol-4-yl)pyrimidin-2-ylamino)-N—((R)-1-(3-methoxyphenyl)ethyl)benzamide]"
6,< 100,"N#CCC(C1CCCC1)n1cc(-c2ccnc(Nc3cccc(C(=O)N4CCC(c5ccccn5)C4)c3)n2)cn1 (mixture of isomers) [Example 152, 3-cyclopentyl-3-(4-(2-(3-(3-(pyridin-2-yl)pyrrolidine-1-carbonyl)phenylamino)pyrimidin-4-yl)-1H-pyrazol-1-yl)propanenitrile]"
7,< 100,"CC(NC(=O)c1cccc(Nc2nccc(-c3cnn(C(CC#N)C4CCCC4)c3)n2)c1)c1ccccn1 (mixture of isomers) [Example 156, 3-(4-(1-(2-cyano-1-cyclopentylethyl)-1H-pyrazol-4-yl)pyrimidin-2-ylamino)-N-(1-(pyridin-2-yl)ethyl)benzamide]"
8,< 100,"N#CCC(C1CCCC1)n1cc(-c2ccnc(Nc3cccc(C(=O)N4CCC(c5cccc(F)c5)C4)c3)n2)cn1 (mixture of isomers) [Example 157, 3-cyclopentyl-3-(4-(2-(3-(3-(3-fluorophenyl)pyrrolidine-1-carbonyl)phenylamino)pyrimidin-4-yl)-1H-pyrazol-1-yl)propanenitrile]"
9,< 100,"CC(=O)N[C@@H]1CCN(C(=O)c2cccc(Nc3nccc(-c4cnn(C(CC#N)C5CCCC5)c4)n3)c2)C1 (mixture of isomers) [Example 158, N-((3R)-1-(3-(4-(1-(2-cyano-1-cyclopentylethyl)-1H-pyrazol-4-yl)pyrimidin-2-ylamino)benzoyl)pyrrolidin-3-yl)acetamide]"
10,< 100,"COC[C@H]1CCCN1C(=O)c1cccc(Nc2nccc(-c3cnn(C(CC#N)C4CCCC4)c3)n2)c1 (mixture of isomers) [Example 162, 3-cyclopentyl-3-(4-(2-(3-((R)-2-(methoxymethyl)pyrrolidine-1-carbonyl)phenylamino)pyrimidin-4-yl)-1H-pyrazol-1-yl)propanenitrile]"
11,< 100,"N#CCC(C1CCCC1)n1cc(-c2ccnc(Nc3cccc(C(=O)N[C@H]4CCN(Cc5ccccc5)C4)c3)n2)cn1 (mixture of isomers) [Example 167, N—((S)-1-benzylpyrrolidin-3-yl)-3-(4-(1-(2-cyano-1-cyclopentylethyl)-1H-pyrazol-4-yl)pyrimidin-2-ylamino)benzamide]"
12,< 100,"COC[C@H]1CCCN1CC(=O)Nc1ccc(Nc2nccc(-c3cnn(C(CC#N)C4CCCC4)c3)n2)cc1 (mixture of isomers) [Example 209, N-(4-(4-(1-(2-cyano-1-cyclopentylethyl)-1H-pyrazol-4-yl)pyrimidin-2-ylamino)phenyl)-2-((R)-2-(methoxymethyl)pyrrolidin-1-yl)acetamide]"
13,< 100,"COCC(C)NCC(=O)Nc1ccc(Nc2nccc(-c3cnn(C(CC#N)C4CCCC4)c3)n2)cc1 (mixture of isomers) [Example 211, N-(4-(4-(1-(2-cyano-1-cyclopentylethyl)-1H-pyrazol-4-yl)pyrimidin-2-ylamino)phenyl)-2-(1-methoxypropan-2-ylamino)acetamide]"
14,< 100,"CC1(C)CCOC12CCN(C(=O)c1ccc(Nc3nccc(-c4cnn(C(CC#N)C5CCCC5)c4)n3)cc1)C2 (mixture of isomers) [Example 220, 3-cyclopentyl-3-(4-(2-(4-(4,4-dimethyl-1-oxa-7-azaspiro[4.4]nonane-7-carbonyl)phenylamino)pyrimidin-4-yl)-1H-pyrazol-1-yl)propanenitrile]"
15,< 100,"N#CCC(C1CCCC1)n1cc(-c2ccnc(Nc3ccc(C(=O)N4CC[C@H](C#N)C4)cc3)n2)cn1 (mixture of isomers) [Example 225, (3S)-1-(4-(4-(1-(2-cyano-1-cyclopentylethyl)-1H-pyrazol-4-yl)pyrimidin-2-ylamino)benzoyl)pyrrolidine-3-carbonitrile]"
16,< 100,"CO[C@H]1CCN(C(=O)c2ccc(Nc3nccc(-c4cnn(C(CC#N)C5CCCC5)c4)n3)cc2)C1 (mixture of isomers) [Example 226, 3-cyclopentyl-3-(4-(2-(4-((S)-3-methoxypyrrolidine-1-carbonyl)phenylamino)pyrimidin-4-yl)-1H-pyrazol-1-yl)propanenitrile]"
17,< 100,"N#CCC(C1CCCC1)n1cc(-c2ccnc(Nc3ccc(C(=O)N4CC[C@H](F)C4)cc3)n2)cn1 (mixture of isomers) [Example 229, 3-cyclopentyl-3-(4-(2-(4-((S)-3-fluoropyrrolidine-1-carbonyl)phenylamino)pyrimidin-4-yl)-1H-pyrazol-1-yl)propanenitrile]"
18,< 100,"CN(C)C1CCN(C(=O)c2ccc(Nc3nccc(-c4cnn(C(CC#N)C5CCCC5)c4)n3)cc2)C1 (mixture of isomers) [Example 230, 3-cyclopentyl-3-(4-(2-(4-(3-(dimethylamino)pyrrolidine-1-carbonyl)phenylamino)pyrimidin-4-yl)-1H-pyrazol-1-yl)propanenitrile]"
19,< 100,"N#CCC(C1CCCC1)n1cc(-c2ccnc(Nc3ccc(C(=O)NC4CCN(c5ccccn5)C4)cc3)n2)cn1 (mixture of isomers) [Example 232, 4-(4-(1-(2-cyano-1-cyclopentylethyl)-1H-pyrazol-4-yl)pyrimidin-2-ylamino)-N-(1-(pyridin-2-yl)pyrrolidin-3-yl)benzamide]"
20,< 100,"N#CCC(C1CCCC1)n1cc(-c2ccnc(Nc3ccc(C(=O)N4CCC(Oc5ccccn5)C4)cc3)n2)cn1 (mixture of isomers) [Example 233, 3-cyclopentyl-3-(4-(2-(4-(3-(pyridin-2-yloxy)pyrrolidine-1-carbonyl)phenylamino)pyrimidin-4-yl)-1H-pyrazol-1-yl)propanenitrile]"
21,< 100,"CC[C@H](NC(=O)c1ccc(Nc2nccc(-c3cnn(C(CC#N)C4CCCC4)c3)n2)cc1)C(=O)N(C)C (mixture of isomers) [Example 235, 4-(4-(1-(2-cyano-1-cyclopentylethyl)-1H-pyrazol-4-yl)pyrimidin-2-ylamino)-N—((S)-1-(dimethylamino)-1-oxobutan-2-yl)benzamide]"
22,< 100,"N#CCC(C1CCCC1)n1cc(-c2ccnc(Nc3cccc(NC(=O)CN4CC[C@@H](O)C4)c3)n2)cn1 (mixture of isomers) [Example 237, N-(3-(4-(1-(2-cyano-1-cyclopentylethyl)-1H-pyrazol-4-yl)pyrimidin-2-ylamino)phenyl)-2-((R)-3-hydroxypyrrolidin-1-yl)acetamide]"
23,< 100,"N#CCC(C1CC1)n1cc(-c2ccnc(Nc3ccc(C(=O)N4CC[C@@H](C#N)C4)cc3)n2)cn1 (mixture of isomers) [Example 264, (3R)-1-(4-(4-(1-(2-cyano-1-cyclopropylethyl)-1H-pyrazol-4-yl)pyrimidin-2-ylamino)benzoyl)pyrrolidine-3-carbonitrile]"
24,< 100,"CO[C@H]1CCN(C(=O)c2ccc(Nc3nccc(-c4cnn(C(CC#N)C5CC5)c4)n3)cc2)C1 (mixture of isomers) [Example 265, 3-cyclopropyl-3-(4-(2-(4-((S)-3-methoxypyrrolidine-1-carbonyl)phenylamino)pyrimidin-4-yl)-1H-pyrazol-1-yl)propanenitrile]"
25,< 100,"N#CCC(C1CC1)n1cc(-c2ccnc(Nc3ccc(C(=O)N4CC[C@@H](O)C4)cc3)n2)cn1 (mixture of isomers) [Example 266, 3-cyclopropyl-3-(4-(2-(4-((R)-3-hydroxypyrrolidine-1-carbonyl)phenylamino)pyrimidin-4-yl)-1H-pyrazol-1-yl)propanenitrile]"
